Results on 22 molecules are retold here after ChEMBL document CHEMBL1134397, “Synthesis, structure-activity relationships, and pharmacokinetic profiles of nonpeptidic alpha-keto heterocycles as novel inhibitors of human chymase” (J Med Chem, 2001).

In data set [1] the target is T1, Chymase (Homo sapiens, UniProt P23946).
T1 sequence (P23946 whole entry): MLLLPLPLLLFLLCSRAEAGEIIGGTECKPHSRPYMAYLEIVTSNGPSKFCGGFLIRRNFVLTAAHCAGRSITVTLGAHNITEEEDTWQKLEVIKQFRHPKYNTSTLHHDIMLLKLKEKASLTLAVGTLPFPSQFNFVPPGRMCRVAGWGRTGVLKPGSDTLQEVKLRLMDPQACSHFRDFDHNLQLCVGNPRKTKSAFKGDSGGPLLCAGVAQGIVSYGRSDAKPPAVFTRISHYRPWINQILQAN
Briefly: inhibitory activity was evaluated against chymase from human heart.

Another data set concerns the target Chymotrypsinogen A (Bos taurus, UniProt P00766). Briefly: Inhibitory activity against alpha chymotrypsin from bovine pancreas.
Data set [2] has as its target T1, Chymase. As to the kind of experiment: Inhibitory activity evaluated against chymase from human heart.
Data set [3] is described as follows: Maximum plasma concentration was measured when a dose of 1 mg/kg is administered orally. It is filed as ADME, organism-based. Also on record: dose 1 mg/kg, route oral. The following applies: rat, po.
Data set [4] is described as follows: Pharmacokinetic parameter AUC was determined when a dose of 1 mg/kg was administered intravenously. The format is ADME, organism-based. Also on record: dose 1 mg/kg, route intravenous. The conditions noted are these: rat, in vivo, iv.
The target of the next data set is T2, Mast cell protease 9 (Mus musculus, UniProt O35164).
T2 sequence (O35164 whole entry): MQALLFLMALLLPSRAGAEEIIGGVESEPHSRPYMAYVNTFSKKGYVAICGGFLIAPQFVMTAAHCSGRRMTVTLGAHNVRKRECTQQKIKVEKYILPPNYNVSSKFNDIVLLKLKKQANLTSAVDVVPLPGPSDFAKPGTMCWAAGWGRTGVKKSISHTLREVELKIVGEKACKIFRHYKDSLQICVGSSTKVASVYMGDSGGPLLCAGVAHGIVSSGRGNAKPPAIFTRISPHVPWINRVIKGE
As to the kind of experiment: Inhibitory activity against mouse peritoneal chymase.

Data set [5] can be described thus: Oral Bioavailability was determined. The conditions noted are these: rat, in vivo, read-out: BA. The format is ADME, organism-based.
Data set [6] addresses T1, Chymase.
A short description of data set [7]: Steady state volume distribution was determined; steady state(ss). The format is ADME, organism-based. The following applies: rat, in vivo.
The nature of data set [8]: Pharmacokinetic parameter plasma clearance was determined at when a dose of 1 mg/kg is administered. The format is ADME, organism-based. The following applies: rat. On the set-up: dose 1 mg/kg.
The target of data set [9] is T3, Chymase (Rattus norvegicus, UniProt P50339).
T3 sequence (P50339 whole entry): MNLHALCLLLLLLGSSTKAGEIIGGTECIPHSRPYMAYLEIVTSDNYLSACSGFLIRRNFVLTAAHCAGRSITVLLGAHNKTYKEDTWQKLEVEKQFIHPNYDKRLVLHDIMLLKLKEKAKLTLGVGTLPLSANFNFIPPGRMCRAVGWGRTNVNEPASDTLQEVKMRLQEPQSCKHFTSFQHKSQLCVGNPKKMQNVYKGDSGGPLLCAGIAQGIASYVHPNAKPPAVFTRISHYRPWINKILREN
As to the kind of experiment: Inhibitory activity against rat peritoneal chymase.

In data set [10] the target is T4, Neutrophil elastase (Homo sapiens) (UniProt P08246).
T4 sequence (whole entry): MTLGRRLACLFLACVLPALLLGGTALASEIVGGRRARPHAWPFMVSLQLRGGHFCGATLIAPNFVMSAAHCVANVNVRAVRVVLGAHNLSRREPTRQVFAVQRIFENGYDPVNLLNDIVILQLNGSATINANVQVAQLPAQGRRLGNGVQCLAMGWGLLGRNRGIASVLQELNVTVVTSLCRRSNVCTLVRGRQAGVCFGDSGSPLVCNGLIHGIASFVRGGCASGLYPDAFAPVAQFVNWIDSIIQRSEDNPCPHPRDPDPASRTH
Briefly: Inhibitory activity against human leukocyte elastase (10 uM); No inhibition.

Data set [11] in a line: Time to reach Cmax when a dose of 1 mg/kg is administered orally. It is filed as ADME, organism-based. On the set-up: dose 1 mg/kg, route oral. The following applies: rat, in vivo, po.
Data set [12] can be described thus: Pharmacokinetic parameter AUC was determined when a dose of 1 mg/kg was administered orally. It is filed as ADME, organism-based. The conditions noted are these: rat, in vivo, po. On the set-up: dose 1 mg/kg, route oral.
The nature of data set [13]: Half life was evaluated when a dose of 1 mg/kg was administered intravenously to rats. The format is ADME, organism-based. On the set-up: dose 1 mg/kg, route intravenous. The following applies: rat, in vivo, iv.
Data set [14] deals with Prothrombin (Homo sapiens) (UniProt P00734). As to the kind of experiment: inhibitory activity against human plasma thrombin (10 uM); No inhibition. The format is cell-free.
The target in data set [15] is Angiotensin-converting enzyme (Homo sapiens) (UniProt P12821). Briefly: Inhibitory activity against human angiotensin I converting enzyme (10 uM); No inhibition.
Chain of Angiotensin-converting enzyme (Homo sapiens) (P12821 whole entry): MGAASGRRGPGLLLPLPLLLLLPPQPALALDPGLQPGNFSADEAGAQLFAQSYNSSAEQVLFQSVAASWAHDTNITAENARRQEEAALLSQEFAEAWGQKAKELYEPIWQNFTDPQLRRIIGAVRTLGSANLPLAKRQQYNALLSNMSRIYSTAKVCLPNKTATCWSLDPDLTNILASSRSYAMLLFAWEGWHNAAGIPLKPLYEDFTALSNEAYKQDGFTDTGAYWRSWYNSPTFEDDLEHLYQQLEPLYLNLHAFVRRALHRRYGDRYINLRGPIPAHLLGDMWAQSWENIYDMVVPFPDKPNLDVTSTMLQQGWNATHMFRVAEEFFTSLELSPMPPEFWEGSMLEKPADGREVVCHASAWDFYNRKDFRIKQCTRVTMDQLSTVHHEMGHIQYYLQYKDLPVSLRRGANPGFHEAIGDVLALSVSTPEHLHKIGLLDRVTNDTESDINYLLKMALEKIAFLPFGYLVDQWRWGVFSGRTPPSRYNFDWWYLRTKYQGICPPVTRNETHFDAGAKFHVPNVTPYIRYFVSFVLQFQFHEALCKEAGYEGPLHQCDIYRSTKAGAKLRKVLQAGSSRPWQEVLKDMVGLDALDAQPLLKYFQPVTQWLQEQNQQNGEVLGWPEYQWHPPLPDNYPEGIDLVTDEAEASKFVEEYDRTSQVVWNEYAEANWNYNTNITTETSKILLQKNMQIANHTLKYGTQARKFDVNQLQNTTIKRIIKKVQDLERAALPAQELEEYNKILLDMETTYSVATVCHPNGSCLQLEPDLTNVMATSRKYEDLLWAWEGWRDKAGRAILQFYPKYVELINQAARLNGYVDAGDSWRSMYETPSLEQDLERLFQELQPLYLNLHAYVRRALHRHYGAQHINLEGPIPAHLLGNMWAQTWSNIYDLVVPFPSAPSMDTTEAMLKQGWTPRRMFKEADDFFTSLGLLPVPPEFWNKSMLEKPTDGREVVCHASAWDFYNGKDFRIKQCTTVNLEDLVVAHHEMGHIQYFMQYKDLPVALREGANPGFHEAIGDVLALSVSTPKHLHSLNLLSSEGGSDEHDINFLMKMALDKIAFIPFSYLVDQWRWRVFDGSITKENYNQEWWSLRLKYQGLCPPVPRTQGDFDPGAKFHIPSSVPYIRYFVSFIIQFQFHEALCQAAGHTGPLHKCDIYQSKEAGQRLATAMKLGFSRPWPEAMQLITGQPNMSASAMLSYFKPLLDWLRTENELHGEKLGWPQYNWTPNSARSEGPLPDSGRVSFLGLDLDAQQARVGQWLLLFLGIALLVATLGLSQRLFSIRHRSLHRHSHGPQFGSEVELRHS
The next data set has as its target T5, Cathepsin G (Homo sapiens, UniProt P08311).
T5 sequence (P08311 whole entry): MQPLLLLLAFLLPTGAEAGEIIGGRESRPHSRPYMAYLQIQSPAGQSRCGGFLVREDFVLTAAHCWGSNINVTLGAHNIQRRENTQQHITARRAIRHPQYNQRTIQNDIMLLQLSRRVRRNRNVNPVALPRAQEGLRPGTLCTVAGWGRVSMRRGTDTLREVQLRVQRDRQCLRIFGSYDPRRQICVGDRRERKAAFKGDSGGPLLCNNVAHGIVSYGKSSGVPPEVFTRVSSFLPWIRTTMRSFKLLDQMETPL
As to the kind of experiment: Inhibitory activity against human cathepsin G.

The target of data set [16] is Prothrombin (Homo sapiens) (UniProt P00734). As to the kind of experiment: Inhibitory activity against human plasma thrombin (10 uM); No inhibition. It is filed as cell-free.

Active and inactive are the calls of the source. Where a SMILES comes first, the peptide text is derived from it. The star is where a group is joined. CF3 = FC(F)(F)*

Take `CC(C)C[C@H](NC(=O)[C@@H](NC(=O)N[C@@H](Cc1ccccc1)C(=O)O)C1CCN=C(N)N1)C(=O)N[C@H](C=O)Cc1ccccc1` (stereo partly drawn) [CHYMOSTATIN]: the Ki (usually a measure of affinity in units of concentration, obtained from inhibition or displacement) on Chymase [1] amounted to 0.0131 µM.

With `COC(=O)c1ccc2nc(C(=O)C(Cc3ccccc3)NC(=O)Cn3c(-c4ccc(F)cc4)ncc(N)c3=O)oc2c1` (stereo not drawn), the affinity on Chymotrypsinogen A, expressed as Ki, was 0.0713 µM. This lies in the double-digit nanomolar range.

`Nc1cnc(-c2ccc(F)cc2)n(CC(=O)NC(Cc2ccccc2)C(=O)c2nc3cc(F)ccc3o2)c1=O` (stereo not drawn) had a Ki at Chymotrypsinogen A of 0.0651 µM.

In the case of `CCOC(=O)c1ccc2oc(C(=O)C(Cc3ccccc3)NC(=O)Cn3c(-c4ccc(F)cc4)ncc(N)c3=O)nc2c1` (stereo not drawn), the results for the Ki at Chymase [2] and on Chymotrypsinogen A were 0.03 µM and 0.477 µM, respectively.

Consider `COC(=O)c1ccc2oc(C(=O)C(Cc3ccccc3)NC(=O)Cn3c(-c4cccc(Cl)c4)ncc(N)c3=O)nc2c1` (stereo not drawn), for which the Ki on Chymase [2] amounted to 0.0261 µM; on Chymotrypsinogen A, 3.82 µM.

Consider `COC(=O)c1ccc2oc(C(=O)C(Cc3ccccc3)NC(=O)Cn3c(-c4cccc(N)c4)ncc(N)c3=O)nc2c1` (stereo not drawn), for which the figures for the Ki on Chymase [2] and on Chymotrypsinogen A were 0.0056 µM and 0.855 µM, respectively.

In the case of `CC(C)[C@H](N)C(=O)N1CCC[C@H]1C(=O)N[C@@H](Cc1ccccc1)C(=O)C(F)(F)F` (H-Val-Pro-Phe-CF3), the Ki at Chymase [2] is 0.0821 µM; on Chymotrypsinogen A, 4.4 µM.

For `Nc1cnc(-c2ccc(F)cc2)n(CC(=O)NC(Cc2ccccc2)C(=O)c2nc3ncccc3o2)c1=O` (stereo not drawn), the Ki is 0.0606 µM at Chymase [2] and 0.0605 µM on Chymotrypsinogen A.

Take `COC(=O)c1ccc2oc(C(=O)C(Cc3ccccc3)NC(=O)Cn3c(-c4cccnc4)ncc(N)c3=O)nc2c1` (stereo not drawn): the Ki at Chymase [1] stood at 0.0774 µM; on Chymotrypsinogen A it was 0.0451 µM.

Regarding `COC(=O)c1ccc2oc(C(=O)C(Cc3ccccc3)NC(=O)Cn3c(-c4ccncc4)ncc(N)c3=O)nc2c1` (stereo not drawn), the values for the Ki at Chymase [2] and on Chymotrypsinogen A were 0.0435 µM and 0.467 µM, respectively.

As for `CCNC(=O)c1ccc2oc(C(=O)C(Cc3ccccc3)NC(=O)Cn3c(-c4ccc(F)cc4)ncc(N)c3=O)nc2c1` (stereo not drawn), the values for the Ki at Chymase [2] and on Chymotrypsinogen A were 0.0686 µM and 0.0326 µM, respectively.

Regarding `COC(=O)c1ccc2oc(C(=O)C(Cc3ccccc3)NC(=O)Cn3c(-c4cccc(OC)c4)ncc(N)c3=O)nc2c1` (stereo not drawn), the Ki on Chymase [2] turned out to be 0.00485 µM; on Mast cell protease 9, 0.0639 µM; on Chymase [6] it was 0.00112 µM; at Chymase [9], 0.0866 µM; at Chymotrypsinogen A, 0.943 µM. For the same molecule, the Cmax (as a rule, the maximum level reached in the sampled fluid or tissue) in data set [3] was found to be 396 ng/mL. Moreover, the AUC – broadly, the area under the concentration-time curve, a measure of exposure – in data set [4] was found to be 108000 ng·h/mL; in data set [12], 20800 ng·h/mL. Also, in [5], the bioavailability worked out at 19.3%. In data set [7], the Vd – broadly, the apparent volume that relates the amount in the body to the concentration in plasma or blood – stood at 0.469 L/kg. Further, the clearance – broadly, the volume of plasma or blood freed of the substance per unit of time – in data set [8] was 0.168 mL/min/kg. Besides, the NA entry in data set [10], in data set [14] and in [15] was “inactive” each time. Moreover, the Tmax (commonly the time from dosing to the highest level) in data set [11] turned out to be 6 h. The half-life (commonly the time needed for the level to fall by half in the phase considered) in [13] is 35.7 h.

As to `Nc1cnc(-c2ccc(F)cc2)n(CC(=O)NC(Cc2ccccc2)C(=O)c2nc3cc(-c4ccccc4)ccc3o2)c1=O` (stereo not drawn), on Chymase [1], affinity was put at a Ki of 0.174 µM.

As to `NC(=O)c1ccc2oc(C(=O)C(Cc3ccccc3)NC(=O)Cn3c(-c4ccc(F)cc4)ncc(N)c3=O)nc2c1` (stereo not drawn), the Ki came to 0.094 µM at Chymase [2] and 0.0534 µM on Chymotrypsinogen A.

`COC(=O)c1ccc2oc(C(=O)C(Cc3ccccc3)NC(=O)Cn3c(-c4cccc(F)c4)ncc(N)c3=O)nc2c1` (stereo not drawn): the Ki on Chymase [2] came out at 0.0143 µM; on Chymotrypsinogen A it was 1.77 µM.

`COC(=O)c1ccc2oc(C(=O)C(Cc3ccccc3)NC(=O)Cn3c(-c4cccc([N+](=O)[O-])c4)ncc(N)c3=O)nc2c1` (stereo not drawn): the affinity at Chymotrypsinogen A, expressed as Ki, was 11.5 µM.

On to `Nc1ccc2oc(C(=O)C(Cc3ccccc3)NC(=O)Cn3c(-c4ccc(F)cc4)ncc(N)c3=O)nc2c1` (stereo not drawn), for which the Ki on Chymotrypsinogen A was 0.06 µM.

For the molecule `COC(=O)c1ccc2oc(C(=O)C(Cc3ccccc3)NC(=O)Cn3c(-c4ccc(F)cc4)ncc(N)c3=O)nc2c1` (stereo not drawn), the Ki at Chymase [2] stood at 0.0226 µM; at Cathepsin G, 0.72 µM; on Mast cell protease 9, 0.0404 µM; at Chymase [6], 0.00368 µM; at Chymase [9], 0.103 µM; on Chymotrypsinogen A, 0.0529 µM. The NA result in data set [10], in [16] and in data set [15] was “inactive” in each case.

`Nc1cnc(-c2ccc(F)cc2)n(CC(=O)NC(Cc2ccccc2)C(=O)c2nc3cc(C(=O)O)ccc3o2)c1=O` (stereo not drawn) registered a Ki on Chymotrypsinogen A of 0.133 µM.

On to `CCN(CC)C(=O)c1ccc2oc(C(=O)C(Cc3ccccc3)NC(=O)Cn3c(-c4ccc(F)cc4)ncc(N)c3=O)nc2c1` (stereo not drawn), for which the Ki at Chymase [2] was 0.0595 µM; on Chymotrypsinogen A it was 0.0233 µM.

On to `Nc1cnc(-c2ccc(F)cc2)n(CC(=O)NC(Cc2ccccc2)C(=O)c2nc3cc(O)ccc3o2)c1=O` (stereo not drawn), for which the Ki turned out to be 2.12 µM at Chymase [2] and 2.23 µM on Chymotrypsinogen A.

Regarding `COC(=O)c1ccc2oc(C(=O)C(Cc3ccccc3)NC(=O)Cn3c(-c4cccc(C)c4)ncc(N)c3=O)nc2c1` (stereo not drawn), the Ki at Chymase [2] turned out to be 0.0442 µM; at Chymotrypsinogen A, 0.0477 µM.
